Values joined by “and” are separate entries in the source; they are usually repeats but may differ in a detail not shown here. Equal entries are not always repeated.
Key:
[1] = tested on: L-gulono-gamma-lactone dehydrogenase (GLDH); test: Effect of metal ions on GLDH enzyme activity; type: biochemical, Gluconobacter oxydans DSM 4025
Procedure: The enzyme assay was performed at 25° C. by measuring the decrease of absorbance at 600 nm of DCIP spectrophotometrically. One unit of enzyme activity was defined as the amount of enzyme which catalyzed the reduction of 1 μmole of DCIP per minute. […] A reference cuvette contained all components except L-gulono gamma-lactone. The reaction was started by the addition of L-gulono-gamma-lactone. Enzyme activity was measured as the initial reduction rate of DCIP.
Using the same enzyme assay method as described under 1), the effect of various metal ions on the enzyme activity was examined.

[2] = tested on: L-gulono-gamma-lactone dehydrogenase (GLDH); test: Substrate specificity of GLDH (DCIP reduction enzyme assay); type: biochemical, Gluconobacter oxydans DSM 4025; conditions: substrate 400 mM; for Relative activity (%): 25° C., DCIP/PMS, L-gulono-gamma-lactone = 100
Procedure: (§1) The enzyme assay was performed at 25° C. by measuring the decrease of absorbance at 600 nm of DCIP spectrophotometrically. One unit of enzyme activity was defined as the amount of enzyme which catalyzed the reduction of 1 μmole of DCIP per minute. The extinction coefficient of DCIP at pH 7.0 was taken as 14.5 mM^-1. A cuvette with 1 cm light path contained 0.16 mM DCIP, 1.6 mM phenazine methosulfate, 200 mM potassium phosphate buffer, 400 mM L-gulono-gamma-lactone, enzyme solution and water in a final volume of 0.5 ml. A reference cuvette contained all components except L-gulono gamma-lactone. The reaction was started by the addition of L-gulono-gamma-lactone. Enzyme activity was measured as the initial reduction rate of DCIP.
Substrate specificity of the enzyme was determined using the same enzyme assay method as described as above except that the various substrate solutions (400 mM) were used instead of L-gulono-gamma-lactone.

[3] = tested on: L-gulono-gamma-lactone dehydrogenase (GLDH); test: Effect of inhibitors on GLDH enzyme activity; type: biochemical, Gluconobacter oxydans DSM 4025
Procedure: as §1
Using the same enzyme assay method as described above, the effect of various inhibitors on the enzyme activity was examined. No compounds tested gave an inhibitory effect on the GLDH.

[4] = tested on: L-gulono-gamma-lactone dehydrogenase (GLDH); test: Measurement of the Km value (DCIP enzyme assay); type: biochemical, Gluconobacter oxydans DSM 4025
Procedure: as §1
Using the same enzyme assay method as described above, the rate of the oxidizing reaction with varying the concentrations of L-gulono-gamma lactone from 0.18 mM to 90 mM was measured to determine the Km value for L-gulono-gamma-lactone.

[5] = tested on: L-gulono-gamma-lactone dehydrogenase (GLDH); conditions: conversion of L-gulono-gamma-lactone to L-ascorbic acid

Row | Compound | Relative activity (%) ([1]; metal 0.19 mM) | Relative activity (%) ([1]; metal 0.38 mM) | Relative activity (%) ([1]; metal 0.89 mM) | also measured
1 | O.O.O.O.O=[N+]([O-])[O-].O=[N+]([O-])[O-].[Ca+2] [Ca(NO3)2.4H2 O] | 100 | 100 | 96 | –
2 | [Ca+2].[Cl-].[Cl-] [CaCl2] | 96 | 104 | 96 | –
3 | O.O.O.O.O.O.[Cl-].[Cl-].[Co+2] [CoCl2.6H2 O] | 102 | 110 | 100 | –
4 | O.O.O.O.O.O.O.O=S(=O)([O-])[O-].[Co+2] [CoSO4.7H2 O] | 96 | 108 | 88 | –
5 | O.O.O.O=[N+]([O-])[O-].O=[N+]([O-])[O-].[Cu+2] [Cu(NO3)2.3H2 O] | 88 | 24 | 0 | –
6 | O.O.[Cl][Cu][Cl] [CuCl2.2H2 O] | 84 | 8 | 0 | –
7 | O.O.O.O.O.O=S(=O)([O-])[O-].[Cu+2] [CuSO4.5H2 O] | 80 | 20 | 0 | –
8 | O=S(=O)([O-])[O-].[Cu+2] [CuSO4] | 92 | 24 | 12 | –
9 | [Cu+2] [Cu^2+] | – | – | – | inhibition of the enzyme by metal ion [1]: strong inhibition
10 | O=C[C@H](O)[C@@H](O)[C@@H](O)[C@H](O)CO [D-Galactose] | – | – | – | Relative activity (%) [2]: 0%
11 | O=C(O)[C@H](O)[C@@H](O)[C@H](O)[C@H](O)CO [D-Gluconic acid] | – | – | – | Relative activity (%) [2]: 0%
12 | O=C1O[C@H](CO)[C@@H](O)[C@H](O)[C@H]1O [D-Glucono-δ-lactone] | – | – | – | Relative activity (%) [2]: 0%
13 | O=C[C@H](O)[C@@H](O)[C@H](O)[C@H](O)CO [D-Glucose] | – | – | – | activity of GLDH on substrate [2]: weakly active; Relative activity (%) [2]: 23.4%
14 | O=C[C@H](O)[C@@H](O)[C@H](O)[C@H](O)C(=O)O [D-Glucuronic acid] | – | – | – | Relative activity (%) [2]: 0%
15 | O=C[C@H](O)[C@H]1OC(=O)[C@@H](O)[C@H]1O [D-Glucurono-r-lactone] | – | – | – | activity of GLDH on substrate [2]: weakly active; Relative activity (%) [2]: 6.38%
16 | O=C[C@@H](O)[C@@H](O)[C@H](O)[C@H](O)CO [D-Mannose] | – | – | – | activity of GLDH on substrate [2]: weakly active; Relative activity (%) [2]: 7.23%
17 | O=C[C@H](O)[C@@H](O)[C@H](O)CO [D-Xylose] | – | – | – | activity of GLDH on substrate [2]: highly active; Relative activity (%) [2]: 110.6%
18 | O=C(O)CN(CCN(CC(=O)O)CC(=O)O)CC(=O)O [EDTA] | – | – | – | Relative activity (%) [3]: 95.2% and 100% and 90.5%
19 | NN [Hydrazine monohydrate] | – | – | – | Relative activity (%) ([3]; inhibitor 1.0 mM): 100%
20 | Cl.NO [Hydroxylamine hydrocloride] | – | – | – | Relative activity (%) ([3]; inhibitor 1.0 mM): 100%; Relative activity (%) ([3]; inhibitor 2.0 mM): 100%
21 | O=C1O[C@H]([C@@H](O)CO)[C@@H](O)[C@@H]1O [L-Galactono-r-lactone, L-galactono-gamma-lactone] | – | – | – | activity of GLDH on substrate [2]: does not use L-galactono-gamma-lactone as a substrate; Relative activity (%) [2]: 0%

Row | Compound | Relative activity (%) ([1]; metal 0.19 mM) | Relative activity (%) ([1]; metal 0.38 mM) | Relative activity (%) ([1]; metal 0.89 mM) | also measured
22 | O=C1O[C@H]([C@@H](O)CO)[C@H](O)[C@@H]1O [L-Gulono-r-lactone, L-gulono-gamma-lactone] | – | – | – | Km ([4]; DCIP as the electron acceptor, substrate 0.18 mM to 90 mM, read-out: apparent Michaelis constant (Km)): 34.8 mM; substrate concentration of maximum reaction rate ([4]; substrate varied 0.18 mM to 90 mM): about 71.8 mM; activity of GLDH on substrate [2]: highly active; Relative activity (%) [2]: 100%
23 | O=C[C@@H](O)[C@@H](O)[C@H](O)[C@@H](O)CO [L-Gulose] | – | – | – | Relative activity (%) [2]: 0%
24 | O.O.O.O.O.O.[Cl-].[Cl-].[Mg+2] [MgCl2.6H2 O] | 96 | 96 | 96 | –
25 | O.O.O.O.O.O.O.O=S(=O)([O-])[O-].[Mg+2] [MgSO4.7H2 O] | 92 | 96 | 92 | –
26 | O.O.O.O.[Cl][Mn][Cl] [MnCl2.4H2 O] | 100 | 0 | 0 | –
27 | [Mn+2] [Mn^2+] | – | – | – | inhibition of the enzyme by metal ion [1]: strong inhibition
28 | O=C(O)CI [Monoiodoacetate] | – | – | – | Relative activity (%) [3]: 104.8% and 100% and 92.9%
29 | CCN1C(=O)C=CC1=O [N-Ethyl-maleimide] | – | – | – | Relative activity (%) ([3]; inhibitor 0.96 mM): 95.2%; Relative activity (%) ([3]; inhibitor 1.89 mM): 100%; Relative activity (%) ([3]; inhibitor 4.46 mM): 100%
30 | O.O.O.O.O.O.O.O=[As]([O-])([O-])O.[Na+].[Na+] [Na2 HAsO4 7H2 O] | – | – | – | Relative activity (%) ([3]; inhibitor 0.96 mM): 95.2%; Relative activity (%) ([3]; inhibitor 1.89 mM): 104.8%; Relative activity (%) ([3]; inhibitor 4.46 mM): 97.6%
31 | O.O.[Na+].[Na+].[O]=[Mo](=[O])([O-])[O-] [Na2 MoO4.2H2 O] | 104 | 96 | 88 | –
32 | O.O.O.O.O.O.O.O=S(=O)([O-])[O-].[Ni+2] [NiSO4.7H2 O] | 96 | 96 | 88 | –
33 | O=C(O)c1cc[c]([Hg][Cl])cc1 [PCMB, p-chloro-mercuribenzoate] | – | – | – | Relative activity (%) ([3]; inhibitor 0.96 mM): 90.5%; Relative activity (%) ([3]; inhibitor 1.89 mM): 102.4%; Relative activity (%) ([3]; inhibitor 4.46 mM): 100%
34 | [N-]=[N+]=[N-] [Sodium azide] | – | – | – | Relative activity (%) ([3]; inhibitor 0.96 mM): 100%; Relative activity (%) ([3]; inhibitor 1.89 mM): 97.6%; Relative activity (%) ([3]; inhibitor 4.46 mM): 97.6%
35 | [F-].[Na+] [Sodium fluoride] | – | – | – | Relative activity (%) ([3]; inhibitor 0.96 mM): 107.1%; Relative activity (%) ([3]; inhibitor 1.89 mM): 114.3%; Relative activity (%) ([3]; inhibitor 4.46 mM): 97.6%
36 | [Cl-].[Cl-].[Zn+2] [ZnCl2] | 88 | 88 | 80 | –
37 | O.O.O.O.O.O.O.O=S(=O)([O-])[O-].[Zn+2] [ZnSO4.7H2 O] | 88 | 88 | 76 | –
38 | O=O [oxygen] | – | – | – | enzyme activity with oxygen as electron acceptor [5]: lack of enzyme catalyzing activity
39 | Fe(SO4)3.xH2 O | 104 | 92 | 76 | –
40 | MnSO4.4-6H2 O | 100 | 0 | 0 | –
41 | TiCl | 88 | 92 | 80 | –

Source: US5250428A, “L-gulono-gamma-lactone-dehydrogenase for producing vitamin C” (Hoffmann-La Roche Inc., priority 1990, dated 1993)
